In US20240246942A1, “KINASE INHIBITORS FOR THE TREATMENT OF NEURODEGENERATIVE DISEASES” (priority 2020, published 2024):

Tests used:
Assay in all cases: biochemical
[1] = target: T1, panel of 374 wild-type kinases (Homo sapiens, UniProt P51955); settings: read-out: % Enzyme Activity (relative to DMSO controls), NEK2
T1 construct: purchased Reaction Biology Corporation
T1 sequence (P51955 1-445): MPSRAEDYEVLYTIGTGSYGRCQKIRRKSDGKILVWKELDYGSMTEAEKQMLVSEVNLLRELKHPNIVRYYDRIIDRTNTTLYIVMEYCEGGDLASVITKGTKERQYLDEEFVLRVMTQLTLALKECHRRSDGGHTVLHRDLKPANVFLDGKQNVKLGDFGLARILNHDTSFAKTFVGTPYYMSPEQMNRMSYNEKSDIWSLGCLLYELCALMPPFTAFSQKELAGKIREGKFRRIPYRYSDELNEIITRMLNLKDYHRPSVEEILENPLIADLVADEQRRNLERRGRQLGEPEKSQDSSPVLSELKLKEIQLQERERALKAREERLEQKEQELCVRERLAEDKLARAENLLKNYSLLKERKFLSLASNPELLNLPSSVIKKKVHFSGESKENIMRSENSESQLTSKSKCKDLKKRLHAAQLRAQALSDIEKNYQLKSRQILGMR

[2] = target: T2, panel of 374 wild-type kinases (Homo sapiens, UniProt Q9Y5S2); settings: read-out: % Enzyme Activity (relative to DMSO controls), MRCKb/CDC42BPB
T2 construct: purchased Reaction Biology Corporation
T2 sequence (Q9Y5S2 whole entry): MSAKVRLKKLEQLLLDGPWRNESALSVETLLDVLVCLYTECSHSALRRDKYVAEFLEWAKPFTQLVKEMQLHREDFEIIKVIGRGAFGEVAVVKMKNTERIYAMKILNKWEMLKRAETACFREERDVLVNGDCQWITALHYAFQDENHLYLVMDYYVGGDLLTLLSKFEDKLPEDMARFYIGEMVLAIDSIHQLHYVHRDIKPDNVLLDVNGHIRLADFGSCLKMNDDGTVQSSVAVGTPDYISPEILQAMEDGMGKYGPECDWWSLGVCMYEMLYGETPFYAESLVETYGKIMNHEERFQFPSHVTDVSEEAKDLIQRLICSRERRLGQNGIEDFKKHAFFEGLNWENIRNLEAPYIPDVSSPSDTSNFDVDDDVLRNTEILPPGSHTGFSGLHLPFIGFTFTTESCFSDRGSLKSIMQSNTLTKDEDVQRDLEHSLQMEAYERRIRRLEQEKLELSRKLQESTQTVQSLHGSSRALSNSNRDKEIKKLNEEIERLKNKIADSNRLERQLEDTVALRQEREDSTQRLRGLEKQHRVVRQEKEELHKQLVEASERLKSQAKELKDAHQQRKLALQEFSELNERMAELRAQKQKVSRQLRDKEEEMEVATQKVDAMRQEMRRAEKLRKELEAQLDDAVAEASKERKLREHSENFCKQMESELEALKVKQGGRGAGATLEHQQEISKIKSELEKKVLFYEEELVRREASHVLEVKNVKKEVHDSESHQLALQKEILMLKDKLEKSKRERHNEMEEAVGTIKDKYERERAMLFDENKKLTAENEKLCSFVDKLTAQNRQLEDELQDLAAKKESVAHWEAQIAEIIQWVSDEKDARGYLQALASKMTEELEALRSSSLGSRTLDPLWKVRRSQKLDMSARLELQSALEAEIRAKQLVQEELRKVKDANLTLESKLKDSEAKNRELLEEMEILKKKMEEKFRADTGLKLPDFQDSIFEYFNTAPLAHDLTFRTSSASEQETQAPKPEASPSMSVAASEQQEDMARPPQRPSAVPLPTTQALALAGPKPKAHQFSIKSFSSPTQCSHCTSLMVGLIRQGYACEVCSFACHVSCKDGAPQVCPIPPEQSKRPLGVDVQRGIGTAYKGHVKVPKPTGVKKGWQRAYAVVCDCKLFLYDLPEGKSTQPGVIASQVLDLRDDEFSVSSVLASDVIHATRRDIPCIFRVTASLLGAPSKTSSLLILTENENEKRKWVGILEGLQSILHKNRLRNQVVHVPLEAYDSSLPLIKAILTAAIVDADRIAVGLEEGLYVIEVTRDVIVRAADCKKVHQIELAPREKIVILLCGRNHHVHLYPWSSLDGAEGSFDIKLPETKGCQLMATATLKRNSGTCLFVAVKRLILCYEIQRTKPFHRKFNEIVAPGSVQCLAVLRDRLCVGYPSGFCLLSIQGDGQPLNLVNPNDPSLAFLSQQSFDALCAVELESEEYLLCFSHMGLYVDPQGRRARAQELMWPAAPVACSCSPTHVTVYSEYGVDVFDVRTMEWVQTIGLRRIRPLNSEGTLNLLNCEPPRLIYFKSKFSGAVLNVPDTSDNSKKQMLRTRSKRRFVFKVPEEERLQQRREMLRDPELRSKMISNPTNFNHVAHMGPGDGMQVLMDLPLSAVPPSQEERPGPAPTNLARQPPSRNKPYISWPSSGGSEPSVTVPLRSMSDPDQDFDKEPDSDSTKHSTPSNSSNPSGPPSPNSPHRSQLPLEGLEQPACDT

[3] = target: T3, panel of 374 wild-type kinases (Homo sapiens, UniProt P15056); settings: read-out: % Enzyme Activity (relative to DMSO controls), BRAF
T3 construct: purchased Reaction Biology Corporation
T3 sequence (P15056 whole entry): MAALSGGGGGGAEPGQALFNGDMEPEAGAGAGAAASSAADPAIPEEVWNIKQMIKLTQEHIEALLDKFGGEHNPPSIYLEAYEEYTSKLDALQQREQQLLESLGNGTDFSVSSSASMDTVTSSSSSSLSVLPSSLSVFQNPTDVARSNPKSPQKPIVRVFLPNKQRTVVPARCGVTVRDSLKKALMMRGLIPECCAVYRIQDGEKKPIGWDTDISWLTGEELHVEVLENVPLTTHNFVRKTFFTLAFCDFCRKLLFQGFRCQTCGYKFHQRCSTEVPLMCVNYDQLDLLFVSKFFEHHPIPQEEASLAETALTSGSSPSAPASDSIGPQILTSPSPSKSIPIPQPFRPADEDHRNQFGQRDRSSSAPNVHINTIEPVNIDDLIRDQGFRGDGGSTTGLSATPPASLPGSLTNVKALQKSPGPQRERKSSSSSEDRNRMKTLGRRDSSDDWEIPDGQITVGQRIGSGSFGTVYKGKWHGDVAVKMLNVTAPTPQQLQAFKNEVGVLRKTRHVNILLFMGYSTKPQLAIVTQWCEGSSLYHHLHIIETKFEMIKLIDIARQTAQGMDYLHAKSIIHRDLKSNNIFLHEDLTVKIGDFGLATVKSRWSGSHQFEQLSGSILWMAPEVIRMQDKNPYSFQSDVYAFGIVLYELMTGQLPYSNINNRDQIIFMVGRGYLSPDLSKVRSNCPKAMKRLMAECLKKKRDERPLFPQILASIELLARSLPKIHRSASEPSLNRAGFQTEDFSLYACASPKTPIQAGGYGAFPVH

[4] = target: T4, panel of 374 wild-type kinases (Homo sapiens, UniProt O95747); settings: read-out: % Enzyme Activity (relative to DMSO controls), OSR1/OXSR1
T4 construct: purchased Reaction Biology Corporation
T4 sequence (O95747 whole entry): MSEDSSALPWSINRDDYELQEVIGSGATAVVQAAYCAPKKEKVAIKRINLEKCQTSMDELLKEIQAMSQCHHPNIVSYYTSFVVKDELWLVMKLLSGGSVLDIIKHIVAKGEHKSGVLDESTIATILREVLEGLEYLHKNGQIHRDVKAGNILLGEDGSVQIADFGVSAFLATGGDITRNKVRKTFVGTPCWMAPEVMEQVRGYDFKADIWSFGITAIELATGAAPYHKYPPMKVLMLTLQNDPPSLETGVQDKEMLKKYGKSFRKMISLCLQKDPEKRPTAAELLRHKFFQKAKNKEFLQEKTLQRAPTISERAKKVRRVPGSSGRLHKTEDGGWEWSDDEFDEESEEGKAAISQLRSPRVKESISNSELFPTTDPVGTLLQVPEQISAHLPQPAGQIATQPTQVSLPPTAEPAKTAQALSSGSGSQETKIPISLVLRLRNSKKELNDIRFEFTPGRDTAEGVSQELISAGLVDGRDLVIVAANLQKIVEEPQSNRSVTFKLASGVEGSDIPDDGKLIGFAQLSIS

[5] = target: T5, panel of 374 wild-type kinases (Homo sapiens, UniProt O43353); settings: read-out: % Enzyme Activity (relative to DMSO controls), kinase RIPK2
T5 construct: purchased Reaction Biology Corporation

[6] = target: T6, panel of 374 wild-type kinases (Homo sapiens, UniProt Q9Y4K4); settings: read-out: % Enzyme Activity (relative to DMSO controls), KHS/MAP4K5
T6 construct: purchased Reaction Biology Corporation
T6 sequence (Q9Y4K4 whole entry): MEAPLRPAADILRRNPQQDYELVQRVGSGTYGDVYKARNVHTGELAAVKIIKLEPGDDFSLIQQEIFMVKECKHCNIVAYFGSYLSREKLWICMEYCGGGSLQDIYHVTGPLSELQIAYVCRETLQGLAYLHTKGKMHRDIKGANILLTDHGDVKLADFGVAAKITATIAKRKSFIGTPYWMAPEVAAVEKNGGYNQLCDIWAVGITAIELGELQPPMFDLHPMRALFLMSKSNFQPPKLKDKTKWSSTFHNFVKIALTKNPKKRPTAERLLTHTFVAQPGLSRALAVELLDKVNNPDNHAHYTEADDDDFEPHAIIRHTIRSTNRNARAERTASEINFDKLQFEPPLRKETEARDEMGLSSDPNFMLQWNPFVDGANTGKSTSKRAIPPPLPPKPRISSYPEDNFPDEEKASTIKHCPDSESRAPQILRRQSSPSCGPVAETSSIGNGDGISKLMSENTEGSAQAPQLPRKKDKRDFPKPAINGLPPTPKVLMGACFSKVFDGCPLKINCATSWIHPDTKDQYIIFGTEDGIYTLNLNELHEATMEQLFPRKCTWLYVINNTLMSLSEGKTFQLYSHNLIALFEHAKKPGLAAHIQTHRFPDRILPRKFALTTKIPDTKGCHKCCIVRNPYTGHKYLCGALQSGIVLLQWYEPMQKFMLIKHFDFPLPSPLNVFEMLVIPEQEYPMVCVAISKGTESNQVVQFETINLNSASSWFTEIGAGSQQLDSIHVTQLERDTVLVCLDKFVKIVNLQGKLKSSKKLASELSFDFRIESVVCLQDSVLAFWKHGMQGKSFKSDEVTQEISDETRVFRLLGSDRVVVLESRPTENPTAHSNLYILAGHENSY

[7] = target: T7, panel of 374 wild-type kinases (Homo sapiens, UniProt P45984); settings: JNK2, read-out: % Enzyme Activity (relative to DMSO controls)
T7 construct: purchased Reaction Biology Corporation
T7 sequence (P45984 whole entry): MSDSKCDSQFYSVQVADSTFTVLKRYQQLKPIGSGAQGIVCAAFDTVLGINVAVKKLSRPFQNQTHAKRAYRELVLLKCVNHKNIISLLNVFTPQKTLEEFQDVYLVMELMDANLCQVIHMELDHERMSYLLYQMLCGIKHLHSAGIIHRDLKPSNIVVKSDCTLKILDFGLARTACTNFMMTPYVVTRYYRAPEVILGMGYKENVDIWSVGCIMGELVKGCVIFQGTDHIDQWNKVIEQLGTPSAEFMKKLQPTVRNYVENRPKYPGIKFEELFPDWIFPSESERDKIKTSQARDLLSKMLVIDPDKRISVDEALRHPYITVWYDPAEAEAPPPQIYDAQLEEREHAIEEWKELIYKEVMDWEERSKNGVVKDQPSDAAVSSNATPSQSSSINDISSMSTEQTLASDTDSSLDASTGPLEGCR

[8] = target: T8, panel of 374 wild-type kinases (Homo sapiens, UniProt Q13873); settings: read-out: % Enzyme Activity (relative to DMSO controls), BMPR2
T8 construct: purchased Reaction Biology Corporation
T8 sequence (Q13873 27-1038): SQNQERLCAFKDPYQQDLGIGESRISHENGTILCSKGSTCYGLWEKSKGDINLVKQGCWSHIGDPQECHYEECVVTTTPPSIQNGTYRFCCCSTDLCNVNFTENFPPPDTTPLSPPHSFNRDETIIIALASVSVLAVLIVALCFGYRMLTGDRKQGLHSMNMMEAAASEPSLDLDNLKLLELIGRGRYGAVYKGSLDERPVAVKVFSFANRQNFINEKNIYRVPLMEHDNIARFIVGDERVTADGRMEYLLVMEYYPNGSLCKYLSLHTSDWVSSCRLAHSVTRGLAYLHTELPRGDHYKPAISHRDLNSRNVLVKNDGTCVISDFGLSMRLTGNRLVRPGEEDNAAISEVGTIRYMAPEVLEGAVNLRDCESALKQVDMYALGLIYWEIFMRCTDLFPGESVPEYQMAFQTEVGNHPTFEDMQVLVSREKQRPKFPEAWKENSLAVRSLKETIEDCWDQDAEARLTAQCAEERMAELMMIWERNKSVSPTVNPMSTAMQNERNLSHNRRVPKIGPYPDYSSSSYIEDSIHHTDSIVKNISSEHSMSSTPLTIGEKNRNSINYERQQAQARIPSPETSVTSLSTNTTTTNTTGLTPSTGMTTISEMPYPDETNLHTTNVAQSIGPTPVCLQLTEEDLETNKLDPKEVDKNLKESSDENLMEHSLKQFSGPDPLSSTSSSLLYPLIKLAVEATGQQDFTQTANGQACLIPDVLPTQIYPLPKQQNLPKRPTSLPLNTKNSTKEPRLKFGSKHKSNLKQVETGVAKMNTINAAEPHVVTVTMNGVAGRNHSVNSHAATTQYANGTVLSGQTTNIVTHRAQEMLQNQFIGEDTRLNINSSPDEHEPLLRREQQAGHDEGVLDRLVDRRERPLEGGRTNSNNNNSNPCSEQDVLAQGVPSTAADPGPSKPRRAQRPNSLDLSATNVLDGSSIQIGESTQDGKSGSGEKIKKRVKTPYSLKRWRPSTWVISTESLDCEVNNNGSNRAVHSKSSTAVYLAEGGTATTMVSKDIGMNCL

[9] = target: T9, panel of 374 wild-type kinases (Homo sapiens, UniProt P07332); settings: read-out: % Enzyme Activity (relative to DMSO controls), FES/FPS
T9 construct: purchased Reaction Biology Corporation
T9 sequence (P07332 whole entry): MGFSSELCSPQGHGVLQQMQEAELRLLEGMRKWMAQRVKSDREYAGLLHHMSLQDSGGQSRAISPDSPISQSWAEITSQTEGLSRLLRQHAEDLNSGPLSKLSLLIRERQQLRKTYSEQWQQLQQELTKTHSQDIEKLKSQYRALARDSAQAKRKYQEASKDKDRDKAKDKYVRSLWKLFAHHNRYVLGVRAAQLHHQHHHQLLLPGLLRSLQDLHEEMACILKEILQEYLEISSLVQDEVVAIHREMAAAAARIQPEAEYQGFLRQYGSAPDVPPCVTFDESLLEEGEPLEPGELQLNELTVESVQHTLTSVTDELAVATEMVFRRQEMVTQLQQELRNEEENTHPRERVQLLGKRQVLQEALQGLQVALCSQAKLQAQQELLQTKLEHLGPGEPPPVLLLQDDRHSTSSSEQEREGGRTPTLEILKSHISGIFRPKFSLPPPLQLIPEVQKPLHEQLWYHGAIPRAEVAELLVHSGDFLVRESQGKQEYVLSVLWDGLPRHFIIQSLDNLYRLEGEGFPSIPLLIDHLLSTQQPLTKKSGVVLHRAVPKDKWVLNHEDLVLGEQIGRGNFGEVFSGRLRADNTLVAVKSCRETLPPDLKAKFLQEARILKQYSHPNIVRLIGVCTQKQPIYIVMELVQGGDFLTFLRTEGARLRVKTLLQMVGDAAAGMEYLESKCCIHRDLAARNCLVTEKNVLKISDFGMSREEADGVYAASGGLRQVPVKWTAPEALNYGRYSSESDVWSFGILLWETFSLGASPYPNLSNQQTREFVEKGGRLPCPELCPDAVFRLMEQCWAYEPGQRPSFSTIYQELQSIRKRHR

[10] = target: T10, panel of 374 wild-type kinases (Homo sapiens, UniProt P51956); settings: read-out: % Enzyme Activity (relative to DMSO controls), NEK3
T10 construct: purchased Reaction Biology Corporation
T10 sequence (P51956 1-506): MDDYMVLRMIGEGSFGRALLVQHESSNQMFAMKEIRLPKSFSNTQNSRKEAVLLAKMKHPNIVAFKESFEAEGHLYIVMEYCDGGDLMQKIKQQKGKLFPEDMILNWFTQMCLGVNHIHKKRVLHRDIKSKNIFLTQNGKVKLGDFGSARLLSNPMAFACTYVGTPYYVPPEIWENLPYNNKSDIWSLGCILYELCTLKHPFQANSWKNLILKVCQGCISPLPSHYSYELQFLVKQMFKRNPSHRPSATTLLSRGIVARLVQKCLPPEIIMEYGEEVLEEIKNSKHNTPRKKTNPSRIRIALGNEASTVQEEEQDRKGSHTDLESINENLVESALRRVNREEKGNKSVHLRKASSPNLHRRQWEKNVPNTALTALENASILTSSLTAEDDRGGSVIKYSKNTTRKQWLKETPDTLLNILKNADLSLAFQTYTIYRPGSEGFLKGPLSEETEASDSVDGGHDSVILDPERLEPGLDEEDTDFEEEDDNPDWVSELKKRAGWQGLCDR

[11] = target: T11, panel of 374 wild-type kinases (Homo sapiens, UniProt Q9UPE1); settings: read-out: % Enzyme Activity (relative to DMSO controls), MSSK1/STK23
T11 construct: purchased Reaction Biology Corporation

| Structure (SMILES) | remaining activity at 5 µM [1] [%] | remaining activity at 5 µM [2] [%] | remaining activity at 5 µM [3] [%] | remaining activity at 5 µM [4] [%] | remaining activity at 5 µM [5] [%] | remaining activity at 5 µM [6] [%] | remaining activity at 5 µM [7] [%] | remaining activity at 5 µM [8] [%] | remaining activity at 5 µM [9] [%] | remaining activity at 5 µM [10] [%] | remaining activity at 5 µM [11] [%] | also measured |
| --- | --- | --- | --- | --- | --- | --- | --- | --- | --- | --- | --- | --- |
| O=C(Nc1cnn(-c2csc(C(=O)NC3COC3)c2)c1)Nc1c(F)cccc1Cl [Compound 25, 4-(4-(3-(2-chloro-6-fluorophenyl)ureido)-1H-pyrazol-1-yl)-N-(oxetan-3-yl)thiophene-2-carboxamide] | 96.2 | 89 | 99.9 | 96.5 | 80.2 | 103 | 22.7 | 77.2 | 87.8 | 87.2 | 89.8 | – |
| O=C(Nc1cnn(-c2csc(C(=O)NC3COC3)c2)c1)Nc1ccccc1Cl [Compound 17, 4-(4-(3-(2-chlorophenyl)ureido)-1H-pyrazol-1-yl)-N-(oxetan-3-yl)thiophene-2-carboxamide] | 104 | 97.1 | 93.3 | 92.6 | 120 | 99.1 | 34.1 | 110 | 99.3 | 103 | 91.9 | – |
| Cc1sc(C(=O)NC2COC2)cc1-n1cc(NC(=O)Nc2c(F)cccc2Cl)cn1 [Compound 27, 4-(4-(3-(2-chloro-6-fluorophenyl)ureido)-1H-pyrazol-1-yl)-5-methyl-N-(oxetan-3-yl)thiophene-2-carboxamide] | – | – | – | – | – | – | – | – | – | – | – | remaining activity at 10 µM ([1]; 10 uM): 88%; remaining activity at 10 µM ([2]; 10 uM): 112%; remaining activity at 10 µM ([3]; 10 uM): 105%; remaining activity at 10 µM ([4]; 10 uM): 127%; remaining activity at 10 µM ([5]; 10 uM): 89.3%; remaining activity at 10 µM ([6]; 10 uM): 98.4%; remaining activity at 10 µM ([7]; 10 uM): 51.9%; remaining activity at 10 µM ([8]; 10 uM): 84.5%; remaining activity at 10 µM ([9]; 10 uM): 93.7%; remaining activity at 10 µM ([10]; 10 uM): 87.5%; remaining activity at 10 µM ([11]; 10 uM): 98.9% |
